Experimental data: US9242981B2, “Fused pyrazole derivatives as novel ERK inhibitors” (Merck Sharp & Dohme Corp., priority 2010, dated 2016)

These compounds were tested against Mouse ERK2 protein (Mus musculus (Mouse), UniProt P63085) (assay: Coupled MEK1/ERK2 IMAP assay or Active ERK2 IMAP assay). Conditions: Table 1, class symbols, 30 μM ATP.
Type: biochemical

Mouse ERK2 protein, sequence (P63085 whole entry): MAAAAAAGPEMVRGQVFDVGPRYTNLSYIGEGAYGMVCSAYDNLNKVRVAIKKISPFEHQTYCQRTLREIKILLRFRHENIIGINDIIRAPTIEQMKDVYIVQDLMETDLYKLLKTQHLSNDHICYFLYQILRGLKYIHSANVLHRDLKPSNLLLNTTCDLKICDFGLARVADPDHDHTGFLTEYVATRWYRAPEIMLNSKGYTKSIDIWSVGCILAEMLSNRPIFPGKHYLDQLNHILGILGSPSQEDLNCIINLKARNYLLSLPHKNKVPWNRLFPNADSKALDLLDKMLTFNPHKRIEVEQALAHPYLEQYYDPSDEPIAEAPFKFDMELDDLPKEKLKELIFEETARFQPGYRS

Row | Structure (SMILES) | IC50
1 | COc1ccccc1CN1CCC[C@@H](NC(=O)N2CCc3[nH]nc(-c4ccncc4)c3C2)C1 [Compound 70, 1,4,6,7-tetrahydro-N-[1-[(2-methoxyphenyl)methyl]-3(R)-piperidinyl]-3-(4-pyridinyl)-5H-pyrazolo[4,3-c]pyridine-5-carboxamide] | 21 to 100 nM
2 | Cc1cccc(C)c1CN1CC[C@@H](NC(=O)N2CCc3[nH]nc(-c4ccc(-c5ccccc5)nc4)c3C2)C1 [Compound 139, N-[1-[(2,6-dimethylphenyl)-methyl]-3(R)-pyrrolidinyl]-1,4,6,7-tetrahydro-3-(6-phenyl-3-pyridinyl)-5H-pyrazolo[4,3-c]pyridine-5-carboxamide] | 101 to 1000 nM
3 | Cc1cc(-c2n[nH]c3c2CN(C(=O)N[C@@H]2CCN(Cc4c(F)cccc4Cl)C2)CC3)ccn1 [Compound 117, N-[1-[(2-chloro-6-fluorophenyl)methyl]-3(R)-pyrrolidinyl]-1,4,6,7-tetrahydro-3-(2-methyl-4-pyridinyl)-5H-pyrazolo[4,3-c]pyridine-5-carboxamide] | 21 to 100 nM
4 | COc1ccc(OC)c(CC(=O)N2CCc3[nH]nc(-c4ccncc4)c3C2)c1 [Compound 23, 5-[(2,5-dimethoxyphenyl)-acetyl]-4,5,6,7-tetrahydro-3-(4-pyridinyl)-1H-pyrazolo[4,3-c]pyridine] | 101 to 1000 nM
5 | Cc1cc(-c2n[nH]c3c2CN(C(=O)N[C@@H]2CCCN(Cc4ccnc5ccccc45)C2)CC3)ccn1 [Compound 98] | 101 to 1000 nM
6 | O=C(N[C@H]1CNC[C@@H]1c1ccccc1)[C@@H]1CCc2[nH]nc(-c3ccncc3)c2C1 (racemic) [Compound 12, 4,5,6,7-tetrahydro-N-(trans-4-phenyl-3-pyrrolidinyl)-3-(4-pyridinyl)-1H-indazole-5(R)-carboxamide] | 101 to 1000 nM
7 | O=C(N[C@@H]1CCCN(CCc2ccccc2)C1)N1CCc2[nH]nc(-c3ccncc3)c2C1 [Compound 173, 1,4,6,7-tetrahydro-N-[1-(2-phenylethyl)-3(R)-piperidinyl]-3-(4-pyridinyl)-5H-pyrazolo[4,3-c]pyridine-5-carboxamide] | 21 to 100 nM
8 | O=C(N[C@@H]1CCCN(Cc2ccccc2)C1)N1CCc2[nH]nc(-c3ccncc3)c2C1 (single isomer, unassigned) [Compound 175] | < 20 nM
9 | O=C(N[C@@H]1CCC[C@H]1c1ccccc1)N1CCc2[nH]nc(-c3ccncc3)c2C1 (racemic) [Compound 143, 1,4,6,7-tetrahydro-N-[trans-2-phenylcyclopentyl]-3-(4-pyridinyl)-5H-pyrazolo[4,3-c]pyridine-5-carboxamide] | < 20 nM
10 | Cc1cc(-c2n[nH]c3c2CN(C(=O)NC2CC(C)CN(Cc4cnc5ccccc5c4)C2)CC3)ccn1 (stereo not shown) [Compound 96, 1,4,6,7-tetrahydro-3-(2-methyl-4-pyridinyl)-N-[5-methyl-1-(3-quinolinylmethyl)-3-piperidinyl]-5H-pyrazolo[4,3-c]pyridine-5-carboxamide] | 101 to 1000 nM
11 | COc1ccc(-c2n[nH]c3c2CN(C(=O)N[C@@H]2CCCN(Cc4c(F)cccc4F)C2)CC3)cn1 [Compound 132, N-[1-[(2,6-difluorophenyl)-methyl]-3(R)-piperidinyl]-1,4,6,7-tetrahydro-3-(6-Methoxy-3-pyridinyl)-5H-pyrazolo[4,3-c]pyridine-5-carboxamide] | 21 to 100 nM
12 | Cc1nc2cc(-c3n[nH]c4c3CN(C(=O)N[C@@H]3CCCN(Cc5ccccc5)C3)CC4)ccc2s1 [Compound 190, 1,4,6,7-tetrahydro-3-(2-methyl-5-benzothiazolyl)-N-[1-(phenylmethyl)-3(R)-piperidinyl]-5H-pyrazolo[4,3-c]pyridine-5-carboxamide] | 101 to 1000 nM
13 | CN1C[C@@H](NC(=O)N2CCc3[nH]nc(-c4ccncc4)c3C2)[C@H](c2ccccc2-c2ccccc2)C1 (racemic) [Compound 163, N-[trans-4-[1,1′-biphenyl]-2-yl-1-methyl-3-pyrrolidinyl]-1,4,6,7-tetrahydro-3-(4-pyridinyl)-5H-pyrazolo[4,3-C]pyridine-5-carboxamide] | < 20 nM
14 | O=C(N[C@@H]1CCCN(Cc2csc3ccccc23)C1)N1CCc2[nH]nc(-c3ccc(-c4ccccc4)nc3)c2C1 [Compound 136, N-[1-(benzo[b]thien-3-ylmethyl)-3(R)-piperidinyl]-1,4,6,7-tetrahydro-3-(6-phenyl-3-pyridinyl)-5H-pyrazolo[4,3-c]pyridine-5-carboxamide] | 101 to 1000 nM
15 | Cc1ccc([C@@H]2CNC[C@H]2NC(=O)N2CCc3[nH]nc(-c4ccncc4)c3C2)cc1 (racemic) [Compound 157, 1,4,6,7-tetrahydro-N-[trans-4-(4-methylphenyl)-3-pyrrolidinyl]-3-(4-pyridinyl)-5H-pyrazolo[4,3-c]pyridine-5-carboxamide] | < 20 nM
16 | Cc1nc2ccc(-c3n[nH]c4c3CN(C(=O)N[C@@H]3CCCN(Cc5ccccc5F)C3)CC4)cc2o1 [Compound 191, N-[1-[(2-fluorophenyl)-methyl]-3(R)-piperidinyl]-1,4,6,7-tetrahydro-3-(2-methyl-6-benzoxazolyl)-5H-pyrazolo[4,3-c]pyridine-5-carboxamide] | < 20 nM
17 | COc1ccccc1NC(=O)C1(C)CCc2[nH]nc(-c3ccncc3)c2C1 (stereo not shown) [Compound 15, 4,5,6,7-tetrahydro-N-(2-methoxyphenyl)-5-methyl-3-(4-pyridinyl)-1H-indazole-5-carboxamide] | 1000 to 100000 nM
18 | Cc1cc(-c2n[nH]c3c2CN(C(=O)NC2CCCN(Cc4c(F)cccc4Cl)C2)CC3)ccn1 (stereo not shown) [Compound 85, N-[1-[(2-chloro-6-fluorophenyl)methyl]-3-piperidinyl]-1,4,6,7-tetrahydro-3-(2-methyl-4-pyridinyl)-5H-pyrazolo[4,3-c]pyridine-5-carboxamide] | < 20 nM
19 | COc1ccc(-c2n[nH]c3c2CN(C(=O)N[C@@H]2CCCN(Cc4c(C)cccc4C)C2)CC3)cc1F [Compound 124, N-[1-[(2,6-dimethylphenyl)-methyl]-3(R)-piperidinyl]-3-(3-fluoro-4-methoxyphenyl)-1,4,6,7-tetrahydro-5H-pyrazolo[4,3-c]pyridine-5-carboxamide] | 21 to 100 nM
20 | CN1C[C@@H](NC(=O)N2CCc3[nH]nc(-c4ccncc4)c3C2)[C@H](c2cccc(-c3ccccc3)c2)C1 (racemic) [Compound 169, N-[trans-4-[1,1′-biphenyl]-3-yl-1-methyl-3-pyrrolidinyl]-1,4,6,7-tetrahydro-3-(4-pyridinyl)-5H-pyrazolo[4,3-c]pyridine-5-carboxamide] | < 20 nM
21 | Cc1nc2cc(-c3n[nH]c4c3CN(C(=O)N[C@@H]3CCCN(Cc5ccc6ccccc6c5)C3)CC4)ccc2o1 [Compound 154, 1,4,6,7-tetrahydro-3-(2-methyl-5-benzoxazolyl)-N-[1-(2-naphthalenylmethyl)-3(R)-piperidinyl]-5H-pyrazolo[4,3-c]pyridine-5-carboxamide] | < 20 nM
22 | CCN1C[C@@H](NC(=O)N2CCc3[nH]nc(-c4ccncc4)c3C2)[C@H](c2ccc(C)cc2)C1 (racemic) [Compound 161, N-[trans-1-ethyl-4-(4-methylphenyl)-3-pyrrolidinyl]-1,4,6,7-tetrahydro-3-(4-pyridinyl)-5H-pyrazolo[4,3-c]pyridine-5-carboxamide] | < 20 nM
23 | COc1cccc(F)c1CN1CCCC(NC(=O)N2CCc3[nH]nc(-c4ccnc(C)c4)c3C2)C1C (stereo not shown) [Compound 122, N-[1-[(2-fluoro-6-methoxyphenyl)methyl]-2-methyl-3-piperidinyl]-1,4,6,7-tetrahydro-3-(2-methyl-4-pyridinyl)-5H-pyrazolo[4,3-c]pyridine-5-carboxamide] | 101 to 1000 nM
24 | Cn1ncc2cc(-c3n[nH]c4c3CN(C(=O)NC3CCC5CCC3N5Cc3ccccc3F)CC4)ccc21 (stereo not shown) [Compound 140, N-[8-[(2-fluorophenyl)methyl]-8-azabicyclo[3.2.1]oct-2-yl]-1,4,6,7-tetrahydro-3-(1-methyl-1H-indazol-5-yl)-5H-pyrazolo[4,3-c]pyridine-5-carboxamide] | < 20 nM
25 | CCC1(NC(=O)N2CCc3[nH]nc(-c4ccnc(C)c4)c3C2)CCCN(Cc2csc3ccccc23)C1 (stereo not shown) [Compound 93, N-[1-(benzo[b]thien-3-ylmethyl)-3-ethyl-3-piperidinyl]-1,4,6,7-tetrahydro-3-(2-methyl-4-pyridinyl)-5H-pyrazolo[4,3-c]pyridine-5-carboxamide] | 101 to 1000 nM
26 | O=C(N[C@@H]1CCCN(Cc2c(F)cccc2F)C1)N1CCc2[nH]nc(-c3ccc4ncccc4c3)c2C1 [Compound 130, N-[1-[(2,6-difluorophenyl)-methyl]-3(R)-piperidinyl]-1,4,6,7-tetrahydro-3-(6-quinolinyl)-5H-pyrazolo[4,3-c]pyridine-5-carboxamide] | 21 to 100 nM
27 | COc1cccc(F)c1CN1CCC[C@@H](NC(=O)N2CCc3[nH]nc(-c4ccc5c(c4)CCO5)c3C2)C1 [Compound 181, (R)-3-(2,3-dihydrobenzofuran-5-yl)-N-(1-(2-fluoro-6-methoxybenzyl)piperidin-3-yl)-6,7-dihydro-1H-pyrazolo[4,3-c]pyridine-5(4H)-carboxamide] | < 20 nM
28 | Cc1nc2cc(-c3n[nH]c4c3CN(C(=O)N[C@@H]3CCCN(Cc5ccnc6ccccc56)C3)CC4)ccc2o1 [Compound 144, 1,4,6,7-tetrahydro-3-(2-methyl-5-benzoxazolyl)-N-[1-(4-quinolinylmethyl)-3(R)-piperidinyl]-5H-pyrazolo[4,3-c]pyridine-5-carboxamide] | 101 to 1000 nM
29 | O=C(N[C@@H]1CCCN(Cc2c(F)cccc2F)C1)N1CCc2[nH]nc(-c3ccc4nccn4c3)c2C1 [Compound 111, N-[1-[(2,6-difluorophenyl)-methyl]-3(R)-piperidinyl]-1,4,6,7-tetrahydro-3-(imidazo[1,2-a]pyridin-6-yl)-5H-pyrazolo[4,3-c]pyridine-5-carboxamide] | < 20 nM
30 | Cc1cc(-c2n[nH]c3c2CN(C(=O)N[C@H]2CN(Cc4c(F)cccc4F)CC(F)(F)C2)CC3)ccn1 [Compound 180, N-[1-[(2,6-difluorophenyl)methyl]-5,5-difluoro-3(R)-piperidinyl]-1,4,6,7-tetrahydro-3-(2-methyl-4-pyridinyl)-5H-pyrazolo[4,3-c]pyridine-5-carboxamide] | 21 to 100 nM

Same assay, conditions: Table 2, 30 μM ATP

Row | Structure (SMILES) | IC50
31 | O=C(N[C@H]1CNC[C@@H]1c1ccccc1)N1CCc2[nH]nc(-c3ccncc3)c2C1 (racemic) [Compound 37, 1,4,6,7-tetrahydro-N-(trans-4-phenyl-3-pyrrolidinyl)-3-(4-pyridinyl)-5H-pyrazolo[4,3-c]pyridine-5-carboxamide] | 1.16 nM
